Measurements taken from the NIST ThermoML archive (doi:10.1016/j.tca.2005.08.036).

Conditions: Liquid, Capillary tube (Ostwald / Ubbelohde) method

O [water]
viscosity [mPa·s]
Conditions | 284.56 K | 304.83 K | 335.46 K | 368.64 K | 397.56 K | 435.61 K
100 kPa | 1.257 | 0.7654 | 0.4482 | 0.2938 | – | –
10000 kPa | 1.249 | 0.7725 | 0.4504 | 0.2966 | 0.2278 | 0.1679
40000 kPa | 1.231 | 0.7745 | 0.4635 | 0.3086 | 0.2358 | 0.1745
